Measured values reported in US10875876B2, “Cyclized sulfamoylarylamide derivatives and the use thereof as medicaments for the treatment of hepatitis B” (priority 2015, dated 2020).
Like-named read-outs stand apart in the source and are kept apart here.

Key:
HBV = assay: anti HBV activity, HepG2.117 cell line, intracellular HBV DNA by realtime PCR; assay type: cell-based; conditions: HepG2.117 cell line (Tet-off), 3 days of treatment, intracellular HBV DNA quantified by realtime PCR, read-out: HBV-AVE-HepG2.117 EC50
Method in brief: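 HepG2.117 cells, a Tet-off line that replicates HBV without doxycycline, were induced and then treated in duplicate with serially diluted compound. After 3 days, intracellular HBV DNA was quantified by real-time PCR with an HBV-specific primer set and probe.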

[1] = Cytotoxicity in HepG2 cells, Resazurin assay; conditions: human, HepG2 cells, TOX-HepG2-4 d CC50 (μM), HepG2 cells incubated for 4 days, viability by Resazurin assay
[2] = Hepatitis B virus, HepG2.117, 72 h

| Compound | EC50 (HBV) | CC50 at 4 days [1] | EC50 (HBV; [2]) |
| --- | --- | --- | --- |
| Cn1ccc(CC2(C)COc3c(cn(C)c3C(=O)Nc3ccnc(C(F)F)c3)S(=O)(=O)N2)n1 (single isomer, unassigned) [Compound 217a, N-[2-(difluoromethyl)-4-pyridyl]-3,7-dimethyl-3-[(1-methylpyrazol-3-yl)methyl]-1,1-dioxo-2,4-dihydropyrrolo[3,4-b][1,4,5]oxathiazepine-6-carboxamide] | 25 nM | > 25 µM | – |
| CC(NCC(F)(F)F)C1CCc2c(cn(C)c2C(=O)Nc2cc(F)c(F)c(F)c2)S(=O)(=O)N1 (single isomer, unassigned) [Compound 218a, 7-methyl-1,1-dioxo-3-[1-(2,2,2-trifluoroethylamino)ethyl]-N-(3,4,5-trifluorophenyl)-2,3,4,5-tetrahydropyrrolo[3,4-f]thiazepine-6-carboxamide] | – | > 25 µM | > 125 nM |
| CC(NCC(F)(F)F)C1CCc2c(cn(C)c2C(=O)Nc2cc(F)c(F)c(F)c2)S(=O)(=O)N1 (single isomer, unassigned) [Compound 218c, 7-methyl-1,1-dioxo-3-[1-(2,2,2-trifluoroethylamino)ethyl]-N-(3,4,5-trifluorophenyl)-2,3,4,5-tetrahydropyrrolo[3,4-f]thiazepine-6-carboxamide] | 6 nM | > 25 µM | – |
| Cc1cc(CC2(C)COc3c(cn(C)c3C(=O)Nc3ccc(F)c(C#N)c3)S(=O)(=O)N2)no1 (single isomer, unassigned) [Compound 220a, N-(3-cyano-4-fluoro-phenyl)-3,7-dimethyl-3-[(5-methylisoxazol-3-yl)methyl]-1,1-dioxo-2,4-dihydropyrrolo[3,4-b][1,4,5]oxathiazepine-6-carboxamide] | 7 nM | > 25 µM | – |
| CCC(O)[C@@H]1COc2c(cn(C)c2C(=O)Nc2ccc(F)c(F)c2)S(=O)(=O)N1 (stereo in doubt) [Compound 142b, N-(3,4-difluorophenyl)-3-(1-hydroxypropyl)-7-methyl-1,1-dioxo-3,4-dihydro-2H-pyrrolo[3,4-b][1,4,5]oxathiazepine-6-carboxamide] | – | > 25 µM | > 125 nM |
| CC1CCCC/C=C/Cc2c(cn(C)c2C(=O)Nc2ccc(F)c(F)c2)S(=O)(=O)N1 (stereo not drawn) [Compound 1, (9E)-N-(3,4-difluorophenyl)-4,14-dimethyl-2,2-dioxo-2λ^6-thia-3,14-diazabicyclo[10.3.0]pentadeca-1(15),9,12-triene-13-carboxamide] | – | > 25 µM | 2740 nM |
| CC1CCC/C=C\Cc2c(cn(C)c2C(=O)Nc2ccc(F)c(F)c2)S(=O)(=O)N1 (stereo not drawn) [Compound 2a, 8Z—N-(3,4-difluorophenyl)-4,13-dimethyl-2,2-dioxo-2λ^6-thia-3,13-diazabicyclo[9.3.0]tetradeca-1(14),8,11-triene-12-carboxamide] | – | > 25 µM | 280 nM |
| CC1CCC/C=C/Cc2c(cn(C)c2C(=O)Nc2ccc(F)c(F)c2)S(=O)(=O)N1 (stereo not drawn) [Compound 2b, 8E-N-(3,4-difluorophenyl)-4,13-dimethyl-2,2-dioxo-2λ^6-thia-3,13-diazabicyclo[9.3.0]tetradeca-1(14),8,11-triene-12-carboxamide] | – | > 25 µM | 490 nM |
| C[C@@H](N1CC/C=C\c2c(cn(C)c2C(=O)Nc2ccc(F)c(F)c2)S1(=O)=O)C(F)(F)F [Compound 3, (5Z)—N-(3,4-difluorophenyl)-8-methyl-1,1-dioxo-2-[(1R)-2,2,2-trifluoro-1-methyl-ethyl]-3,4-dihydropyrrolo[3,4-g]thiazocine-7-carboxamide] | – | > 25 µM | > 500 nM |
| CC1/C=C\Cc2c(cn(C)c2C(=O)Nc2ccc(F)c(F)c2)S(=O)(=O)N1 (stereo not drawn) [Compound 5, (4Z)—N-(3,4-difluorophenyl)-3,8-dimethyl-1,1-dioxo-3,6-dihydro-2H-pyrrolo[3,4-g]thiazocine-7-carboxamide] | – | > 25 µM | 180 nM |
| CC1Cc2c(cn(C)c2C(=O)Nc2ccc(F)c(F)c2)S(=O)(=O)N1 (stereo not drawn) [Compound 11, N-(3,4-difluorophenyl)-3,6-dimethyl-1,1-dioxo-3,4-dihydro-2H-pyrrolo-[3,4-e]thiazine-5-carboxamide] | – | > 25 µM | 77 nM |
| CC1COc2c(ccc(F)c2C(=O)Nc2ccc(F)c(F)c2)S(=O)(=O)N1 (stereo not drawn) [Compound 12, N-(3,4-difluorophenyl)-7-fluoro-3-methyl-1,1-dioxo-3,4-dihydro-2H-5,1λ^6,2-benzoxathiazepine-6-carboxamide] | – | > 25 µM | 350 nM |
| Cn1cc2c(c1C(=O)Nc1ccc(F)c(F)c1)CCNS2(=O)=O [Compound 13, N-(3,4-difluorophenyl)-6-methyl-1,1-dioxo-3,4-dihydro-2H-pyrrolo-[3,4-e]thiazine-5-carboxamide] | – | > 25 µM | 110 nM |
| CC(C)N1CCc2c(cn(C)c2C(=O)Nc2ccc(F)c(F)c2)S1(=O)=O [Compound 16, N-(3,4-difluorophenyl)-2-isopropyl-6-methyl-1,1-dioxo-3,4-dihydropyrrolo[3,4-e]thiazine-5-carboxamide] | – | > 25 µM | 230 nM |
| CCC1Cc2c(cn(C)c2C(=O)Nc2ccc(F)c(F)c2)S(=O)(=O)N1 (stereo not drawn) [Compound 17, N-(3,4-difluorophenyl)-3-ethyl-6-methyl-1,1-dioxo-3,4-dihydro-2H-pyrrolo[3,4-e]thiazine-5-carboxamide] | – | > 25 µM | < 98 nM |
| CC1C=Cc2c(cn(C)c2C(=O)Nc2ccc(F)c(F)c2)S(=O)(=O)N1C (stereo not drawn) [Compound 18, N-(3,4-difluorophenyl)-2,3,7-trimethyl-1,1-dioxo-3H-pyrrolo-[3,4-f]thiazepine-6-carboxamide] | – | > 25 µM | 710 nM |
| Cn1cc2c(c1C(=O)Nc1ccc(F)c(F)c1)OCC1(CC1)NS2(=O)=O [Compound 19, N-(3,4-difluorophenyl)-7-methyl-1,1-dioxo-spiro[2,4-dihydropyrrolo-[3,4-b][1,4,5]oxathiazepine-3,1′-cyclopropane]-6-carboxamide] | – | > 25 µM | 190 nM |
| CC[C@@H]1COc2c(cn(C)c2C(=O)Nc2ccc(F)c(F)c2)S(=O)(=O)N1 [Compound 20, (3R)—N-(3,4-difluorophenyl)-3-ethyl-7-methyl-1,1-dioxo-3,4-dihydro-2H-pyrrolo[3,4-b][1,4,5]oxathiazepine-6-carboxamide] | – | > 25 µM | 58 nM |
| CC1CCOc2c(cn(C)c2C(=O)Nc2ccc(F)c(F)c2)S(=O)(=O)N1 (stereo not drawn) [Compound 21, N-(3,4-difluorophenyl)-3,8-dimethyl-1,1-dioxo-2,3,4,5-tetrahydropyrrolo[3,4-b][1,4,5]oxathiazocine-7-carboxamide] | – | > 25 µM | 150 nM |
| CC(C)[C@H]1COc2c(cn(C)c2C(=O)Nc2ccc(F)c(F)c2)S(=O)(=O)N1 [Compound 22, (3S)—N-(3,4-difluorophenyl)-3-isopropyl-7-methyl-1,1-dioxo-3,4-dihydro-2H-pyrrolo[3,4-b][1,4,5]oxathiazepine-6-carboxamide] | – | > 25 µM | 9 nM |
| CC[C@H](C)[C@H]1COc2c(cn(C)c2C(=O)Nc2ccc(F)c(F)c2)S(=O)(=O)N1 [Compound 23, (3 S)—N-(3,4-difluorophenyl)-7-methyl-3-[(1S)-1-methylpropyl]-1,1-dioxo-3,4-dihydro-2H-pyrrolo[3,4-b][1,4,5]oxathiazepine-6-carboxamide] | – | 10.6 µM | 5 nM |
